Assays:
TC22 = test: FACS of TC22 expression in LS180 colon cancer cells (antibody TC22-4); assay type: cell-based, human; conditions: 4 hours, Serum Free Media
Experimental: Specific monoclonal antibodies, CG3 for hTM5 and TC22-4 for TC22 were used against the cells in a fluorescent activated cell sorter (FACS). Reverse transcriptase PCR (RT-PCR) was utilized to quantify the transcription of hTM5 and TC-22. […] Dishes were washed with 10 ml PBS 3 times. Cells were detached with 0.25% trypsin-EDTA and collected. All cells were >90% viable. The cells were washed and then fixed by using 4% paraformaldehyde for 5 minutes. Cells were washed 2 times. Cells were then resuspended and the first antibody was added: MOPC IgM(0.5 mg/mL) 1 μl (1:100), MOPCIgG(0.5 mg/mL) 1 μl (1:100), CG3 IgM(2.4 mg/mL) 1 μL of (2+3 μL Buffer) (1:250) for hTM5, TC22-4 IgG(30 mg/mL) 1 μL of (1+9 uL Buffer) (1:1000) for TC22. The suspension was incubated at 4° C. for 30 minutes, shaken and washed (2 times) with 30 vol. of PBS/0.5 BSA/2 mm EDTA. The second antibody was added: 1 μl tube (1:100) Cy2 (Cyanine)-conj. G-α-M IgM or Cy2 (Cyanine)-conj. G-α-M IgM, then incubated at 4° C. for 30 minutes, shaken and washed (2 times) with 100 vol. buffer 2 times. The cells were then resuspended in 1 ml wash buffer. FACS was used to detect hTM5 and TC22 expression within 1 hour. […] The graphs show the number of cells as a function of fluorescence intensity. LM1 represents the percent of cells present but not expressing TC22. LM2 represents the percent of cells containing TC22.

LS180 cells = test: Microarray analysis of gene expression in LS180 cells; assay type: cell-based, human; conditions: 200 mM, 4 hours and 24 hours, compared with 5-ASA untreated LS180 cells

Nc1ccc(O)c(C(=O)O)c1 [5-ASA, 5-Aminosalicylic Acid]
expression of TC22 (FACS, FIG. 1f) (TC22): reduced the expression of TC22
Number of genes down-regulated (LS180 cells): >385
Number of genes up-regulated (LS180 cells): >194

Reference: patent US9238040B2, “Chemoprevention of colorectal cancer by mesalamine/sulfasalazine” (RUTGERS, THE STATE UNIVERSITY OF NEW JERSEY, priority 2005, dated 2016)
